Measurements reported in US20110152313A1 (MACQUARIE UNIVERSITY, priority 2008, published 2011).

Experiments:
Test in all cases: kinase binding screen (kinase-tagged T7 phage, qPCR), % Ctrl
CLK4 = CLK4 (Homo sapiens, UniProt Q9HAZ1)
How it was run: (§1)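 Kinase-tagged T7 phage lysates were prepared in E. coli (MOI 0.4, 32° C until lysis), then exposed to ligand-bearing beads and test compound at a fixed concentration. Kinase remaining bound was eluted and measured by qPCR.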

CAMK4 = target: T1, CAMK4 (Homo sapiens, UniProt Q16566)
T1 sequence (Q16566 1-473): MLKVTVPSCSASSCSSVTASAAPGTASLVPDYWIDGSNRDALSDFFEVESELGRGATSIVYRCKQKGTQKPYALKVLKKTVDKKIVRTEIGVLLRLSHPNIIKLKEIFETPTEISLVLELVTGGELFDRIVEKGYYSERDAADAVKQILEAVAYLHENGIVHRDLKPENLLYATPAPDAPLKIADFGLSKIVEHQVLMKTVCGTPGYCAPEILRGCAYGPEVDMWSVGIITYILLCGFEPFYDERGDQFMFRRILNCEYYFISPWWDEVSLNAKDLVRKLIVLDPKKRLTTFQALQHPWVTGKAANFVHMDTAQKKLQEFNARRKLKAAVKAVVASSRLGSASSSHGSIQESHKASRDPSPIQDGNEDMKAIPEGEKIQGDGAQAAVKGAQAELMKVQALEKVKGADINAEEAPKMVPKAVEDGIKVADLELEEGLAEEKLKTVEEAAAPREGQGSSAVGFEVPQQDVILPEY
How it was run: as §1

DYRK1A = DYRK1A (Homo sapiens, UniProt Q13627)
How it was run: as §1

YSK4 = target: T2, YSK4 (Homo sapiens, UniProt Q56UN5)
T2 sequence (Q56UN5 1-1328): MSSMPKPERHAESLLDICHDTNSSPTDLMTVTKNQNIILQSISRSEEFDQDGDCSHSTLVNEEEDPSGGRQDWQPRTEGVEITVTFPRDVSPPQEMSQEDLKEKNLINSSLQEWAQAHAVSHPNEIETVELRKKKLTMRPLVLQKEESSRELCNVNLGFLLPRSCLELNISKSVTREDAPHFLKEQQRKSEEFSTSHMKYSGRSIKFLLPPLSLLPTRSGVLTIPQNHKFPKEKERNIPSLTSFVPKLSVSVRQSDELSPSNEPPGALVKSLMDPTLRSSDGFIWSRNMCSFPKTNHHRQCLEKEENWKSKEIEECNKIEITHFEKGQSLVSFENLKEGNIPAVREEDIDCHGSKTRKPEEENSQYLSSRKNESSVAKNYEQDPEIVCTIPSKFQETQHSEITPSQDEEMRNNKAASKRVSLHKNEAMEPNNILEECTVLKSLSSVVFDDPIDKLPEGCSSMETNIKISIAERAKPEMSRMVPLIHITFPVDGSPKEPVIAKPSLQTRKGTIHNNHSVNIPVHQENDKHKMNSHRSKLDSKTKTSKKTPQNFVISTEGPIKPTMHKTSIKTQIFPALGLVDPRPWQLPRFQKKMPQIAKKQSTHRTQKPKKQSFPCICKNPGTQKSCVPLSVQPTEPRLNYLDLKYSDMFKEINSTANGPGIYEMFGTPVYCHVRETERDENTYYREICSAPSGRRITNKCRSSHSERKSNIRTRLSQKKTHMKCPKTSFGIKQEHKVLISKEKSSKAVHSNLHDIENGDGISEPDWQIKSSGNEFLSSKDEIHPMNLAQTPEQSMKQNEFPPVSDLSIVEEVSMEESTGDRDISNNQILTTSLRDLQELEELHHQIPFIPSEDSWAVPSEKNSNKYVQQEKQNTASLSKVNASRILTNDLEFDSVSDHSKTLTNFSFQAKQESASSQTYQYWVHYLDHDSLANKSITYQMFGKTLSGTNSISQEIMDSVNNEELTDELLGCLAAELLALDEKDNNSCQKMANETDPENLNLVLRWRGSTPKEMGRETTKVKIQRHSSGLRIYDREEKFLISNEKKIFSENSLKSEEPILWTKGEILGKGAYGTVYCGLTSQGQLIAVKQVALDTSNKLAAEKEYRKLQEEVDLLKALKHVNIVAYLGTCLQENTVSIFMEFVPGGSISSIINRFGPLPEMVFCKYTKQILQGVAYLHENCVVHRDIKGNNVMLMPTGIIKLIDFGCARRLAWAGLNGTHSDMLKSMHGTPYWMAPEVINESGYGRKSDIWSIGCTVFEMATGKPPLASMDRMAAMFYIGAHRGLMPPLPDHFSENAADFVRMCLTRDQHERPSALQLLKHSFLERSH
How it was run: as §1

SgK085 = target: T3, SgK085 (Homo sapiens, UniProt Q86YV6)
T3 sequence (Q86YV6 1-388): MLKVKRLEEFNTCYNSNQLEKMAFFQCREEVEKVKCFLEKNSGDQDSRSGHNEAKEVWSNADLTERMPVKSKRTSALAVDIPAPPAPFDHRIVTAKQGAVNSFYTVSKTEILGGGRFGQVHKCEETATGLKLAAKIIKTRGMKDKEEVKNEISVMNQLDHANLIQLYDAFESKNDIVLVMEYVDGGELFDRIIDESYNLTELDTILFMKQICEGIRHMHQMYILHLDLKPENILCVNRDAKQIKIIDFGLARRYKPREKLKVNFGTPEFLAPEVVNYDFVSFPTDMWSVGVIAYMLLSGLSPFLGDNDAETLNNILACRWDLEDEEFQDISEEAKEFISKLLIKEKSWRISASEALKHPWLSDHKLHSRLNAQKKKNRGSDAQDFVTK
How it was run: as §1

ROCK2 = ROCK2 (Homo sapiens, UniProt O75116)
Chain of ROCK2 (O75116 whole entry, species assumed): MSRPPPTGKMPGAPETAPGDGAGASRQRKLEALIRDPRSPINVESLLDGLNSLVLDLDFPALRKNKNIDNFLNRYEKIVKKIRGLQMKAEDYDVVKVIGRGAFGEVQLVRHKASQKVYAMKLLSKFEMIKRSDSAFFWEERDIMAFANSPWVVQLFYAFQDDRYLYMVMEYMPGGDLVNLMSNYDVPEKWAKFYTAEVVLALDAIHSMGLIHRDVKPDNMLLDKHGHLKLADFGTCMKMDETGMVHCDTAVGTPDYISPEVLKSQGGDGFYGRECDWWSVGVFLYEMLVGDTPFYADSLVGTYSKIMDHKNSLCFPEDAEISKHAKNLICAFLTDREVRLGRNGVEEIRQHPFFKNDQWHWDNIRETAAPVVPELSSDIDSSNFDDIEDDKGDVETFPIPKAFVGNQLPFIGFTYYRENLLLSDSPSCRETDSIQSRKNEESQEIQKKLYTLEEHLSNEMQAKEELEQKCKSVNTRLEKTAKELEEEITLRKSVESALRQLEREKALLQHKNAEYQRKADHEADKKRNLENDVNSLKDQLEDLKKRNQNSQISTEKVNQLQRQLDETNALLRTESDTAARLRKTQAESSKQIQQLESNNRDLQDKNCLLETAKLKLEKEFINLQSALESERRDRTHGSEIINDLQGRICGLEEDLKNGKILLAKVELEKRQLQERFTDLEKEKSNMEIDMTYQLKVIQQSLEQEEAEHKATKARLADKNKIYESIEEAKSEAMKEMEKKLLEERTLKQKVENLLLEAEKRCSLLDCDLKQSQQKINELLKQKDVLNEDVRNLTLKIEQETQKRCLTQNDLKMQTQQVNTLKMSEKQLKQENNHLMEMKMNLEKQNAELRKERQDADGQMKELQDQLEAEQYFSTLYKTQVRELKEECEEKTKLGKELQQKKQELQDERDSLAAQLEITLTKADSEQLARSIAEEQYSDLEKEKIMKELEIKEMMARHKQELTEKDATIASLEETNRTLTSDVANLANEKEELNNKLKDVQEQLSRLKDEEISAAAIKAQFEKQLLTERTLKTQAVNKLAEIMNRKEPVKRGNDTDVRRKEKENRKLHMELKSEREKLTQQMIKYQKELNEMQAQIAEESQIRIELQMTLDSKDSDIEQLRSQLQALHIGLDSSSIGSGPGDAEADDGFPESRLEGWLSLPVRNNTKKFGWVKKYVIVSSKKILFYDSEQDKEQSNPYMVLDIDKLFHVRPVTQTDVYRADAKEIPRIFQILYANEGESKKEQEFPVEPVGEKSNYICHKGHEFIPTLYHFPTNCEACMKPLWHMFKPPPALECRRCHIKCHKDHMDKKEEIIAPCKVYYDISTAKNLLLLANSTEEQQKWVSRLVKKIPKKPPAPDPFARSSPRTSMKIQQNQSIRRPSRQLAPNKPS
How it was run: as §1

Chain of CLK4 (Q9HAZ1 whole entry, species assumed): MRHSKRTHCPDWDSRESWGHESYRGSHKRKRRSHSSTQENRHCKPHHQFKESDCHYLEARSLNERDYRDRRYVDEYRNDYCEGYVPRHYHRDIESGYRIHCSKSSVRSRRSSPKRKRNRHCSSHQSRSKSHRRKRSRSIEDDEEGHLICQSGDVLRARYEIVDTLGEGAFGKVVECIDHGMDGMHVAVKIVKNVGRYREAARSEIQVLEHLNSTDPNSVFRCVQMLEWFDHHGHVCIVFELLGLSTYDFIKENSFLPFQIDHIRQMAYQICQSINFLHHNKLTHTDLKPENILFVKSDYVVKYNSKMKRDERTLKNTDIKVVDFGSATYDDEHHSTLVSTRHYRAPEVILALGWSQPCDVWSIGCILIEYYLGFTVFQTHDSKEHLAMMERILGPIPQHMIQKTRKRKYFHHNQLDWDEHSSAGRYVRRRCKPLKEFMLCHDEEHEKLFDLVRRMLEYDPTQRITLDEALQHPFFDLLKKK

| remaining activity at 10 µM (CLK4; 10 μM) | remaining activity at 10 µM (CAMK4; 10 μM) | remaining activity at 10 µM (DYRK1A; 10 μM) | remaining activity at 10 µM (YSK4; 10 μM) | remaining activity at 10 µM (SgK085; 10 μM) | remaining activity at 10 µM (ROCK2; 10 μM) | Structure (SMILES) | remaining activity at 1 µM (CLK4) | remaining activity at 1 µM (CAMK4) | remaining activity at 1 µM (DYRK1A) | remaining activity at 1 µM (YSK4) | remaining activity at 1 µM (SgK085) | remaining activity at 1 µM (ROCK2) |
| --- | --- | --- | --- | --- | --- | --- | --- | --- | --- | --- | --- | --- |
| 11% | 97% | 4.7% | 5.1% | 90% | 38% | Nc1nc2c(-c3cc(Br)c(Br)[nH]3)nccc2[nH]1 [Ageladine A, ageladine A, reference compound] | 51% | 100% | 38% | 56% | 89% | 65% |
| – | – | – | – | – | – | Nc1nc2c(-c3ccccn3)nccc2[nH]1 [drawing 35, 4-(pyrid-2-yl)-1H-imidazo[4,5-c]pyridin-2-amine] | 60% | 100% | 36% | 16% | 43% | 45% |
| – | – | – | – | – | – | Nc1nc2c(-c3cnc4ccccc4c3)nccc2[nH]1 [drawing 36, 4-(quinolin-3-yl)-1H-imidazo[4,5-c]pyridin-2-amine] | 65% | 100% | 51% | 82% | 92% | 100% |
